Q: With CC(c1cc(Cl)cc(Cl)c1O)c1cc(F)cc(Cc2cc(Cl)cc(Br)c2O)c1O (stereo not drawn) as the molecule, how does the melting point read?
A: The melting point was 171 °C.

Q: With CCCc1nc(OC)c(NC(=O)N2CCN(c3cc(C)cc(C)c3)CC2)cc1C(=O)NC(C)C(=O)Nc1cc(CO)cc(Nc2c3ccccc3nc3ccccc23)c1 (stereo not drawn) as the molecule, how does the melting point read?
A: Its melting point is 195 to 197 °C.

Q: Which melting point does the source give for COc1ccccc1NC(=O)Nc1ccc(N2CCN(C(=O)Nc3ccc(OCCO)cc3Cl)CC2)cc1 here?
A: Its melting point is 134 to 136 °C.

Q: For O=C(Nc1ccc2ccccc2c1-c1c(P(c2ccccc2)c2ccccc2)ccc2ccccc12)c1ccccc1, which melting point is on record?
A: Its melting point is 94.8 °C.

Q: Which melting point does the source give for COc1cc(Br)c(N)c(C(=O)/C=C/c2ccc(OC)c(F)c2)c1 here?
A: The melting point was 123 to 125 °C.

Q: Which melting point does the source give for CN(C)C=C1CC(=O)c2ccccc2NC1=O here?
A: Its melting point is 203 to 205 °C.

Q: For COc1ccc(C2(C)C=C(Cl)N=CN2)cc1 (stereo not drawn), which melting point is on record?
A: The melting point was 65 to 67 °C.

Q: For CCCN(C(C)C)[C@H]1COc2cccc(C(N)=O)c2C1, which melting point is on record?
A: Its melting point is 121 to 122 °C.

Q: With CCc1cccc(CC)c1NC(=S)NC(C)C as the molecule, how does the melting point read?
A: Its melting point is 108 to 110 °C.

Q: For COCCCNc1ccc([N+](=O)[O-])cc1, which melting point is on record?
A: The melting point was 57 to 59 °C.

Q: With CC12CCC(OC(=O)c3ccc([N+](=O)[O-])cc3)CC1=CCC1C2CCC2(C)C(=NO)CCC12 (stereo not drawn) as the molecule, how does the melting point read?
A: The melting point was 185 to 188 °C.

Q: For COc1ccc(-n2nc(Sc3ccc(C#N)cc3)c(C)c(C#N)c2=O)cc1, which melting point is on record?
A: Its melting point is 195 to 198 °C.

Q: Which melting point does the source give for CCOC(=O)Cc1csc(NC(=O)C(N)Cc2ccc(F)cc2)n1 (stereo not drawn) here?
A: Its melting point is 124 to 127 °C.

Q: Which melting point does the source give for CCOC(=O)C1=C(C)NC(c2cnc(C)s2)=NC1c1ccc(F)cc1Cl (stereo not drawn) here?
A: The melting point was 107 to 111 °C.

Q: Which melting point does the source give for COC(=O)Cc1ccc(OCCNC(=O)C2Cc3c(OC)cccc3N2S(=O)(=O)c2ccc(-c3cccc(C(F)(F)F)c3)cc2)cc1 (stereo not drawn) here?
A: Its melting point is 64 °C.

Q: For CC(=O)N1C(=O)N(N=Cc2cccnc2)Cc2cc(C(F)(C(F)(F)F)C(F)(F)F)ccc21, which melting point is on record?
A: Its melting point is 160 to 162 °C.

Q: With O=C1Nc2ccc(I)cc2C1=NNC(=O)c1ccc(OCc2ccccc2)cc1 as the molecule, how does the melting point read?
A: The melting point was 298 °C.

Q: For CC(C)OC(=O)COc1ccc(NC(=O)NC(=O)c2ccc(C(N)=S)cc2)cc1, which melting point is on record?
A: Its melting point is 224 to 227 °C.

Q: With NC(=O)N(O)Cc1ccc(-c2ccccc2)s1 as the molecule, how does the melting point read?
A: Its melting point is 174 °C.

Q: Which melting point does the source give for CCCCOc1nc(-c2ccc(=O)n(C(C)C)n2)c(-c2ccccc2)nc1N here?
A: The melting point was 130 to 132 °C.

Q: Which melting point does the source give for CC(=O)N(c1cc2occc(=O)c2cc1Oc1ccccc1)S(C)(=O)=O here?
A: Its melting point is 166 to 169 °C.

Q: With O=C(O)c1cccc(-c2nc(-c3ccc(C(F)(F)F)cc3)cs2)c1 as the molecule, how does the melting point read?
A: The melting point was 230 to 231 °C.

Q: With Nc1c(-c2ccc(-c3ccc(F)cc3)cc2)nc2ccc(Cl)cc2c1C(=O)O as the molecule, how does the melting point read?
A: Its melting point is 255 to 257 °C.

Q: For COc1ccc(CC(=O)O)c(OCCCc2cn(-c3ccc(C(F)(F)F)cn3)nc2C(C)C)c1, which melting point is on record?
A: The melting point was 143 to 144 °C.

Q: With O=C(CCC(O)=NO)c1cccs1 as the molecule, how does the melting point read?
A: The melting point was 133 to 138 °C.

Q: Which melting point does the source give for CCCOc1ccccc1-c1cc(C)c(C(N)=O)c(=O)[nH]1 here?
A: The melting point was 239 to 242 °C.

Q: With O=[N+]([O-])N(c1ccccc1)c1ccccc1 as the molecule, how does the melting point read?
A: The melting point was 118 °C.

Q: For Nc1c(Cl)cc(C(O)CNCCCCCCOCCCc2ccccn2)cc1Cl (stereo not drawn), which melting point is on record?
A: Its melting point is 38 to 41 °C.

Q: With CCCc1nc2c(N)nc3cc(OCc4ccc(C)cc4)ccc3c2n1CC(C)C as the molecule, how does the melting point read?
A: Its melting point is 205 to 207 °C.

Q: For Cc1cc(-c2ccnc(NCc3ccccc3)c2)n(-c2cccc(F)c2)n1, which melting point is on record?
A: The melting point was 94 to 96 °C.

Q: With N#Cc1nn(-c2c(Cl)cc(C(F)(F)F)cc2Cl)cc1C1(Cl)CC1C(F)F (stereo not drawn) as the molecule, how does the melting point read?
A: The melting point was 124 to 125 °C.

Q: Which melting point does the source give for Cc1c(OCc2ccc(F)cc2F)ccn(Cc2cccc(F)c2)c1=O here?
A: The melting point was 127 to 129 °C.

Q: For CN(C(=O)CCS(C)=O)c1cnc(-c2cncc(F)c2)s1 (stereo not drawn), which melting point is on record?
A: Its melting point is 152 to 154 °C.

Q: For CCOC(=O)Nc1cc(COC(=O)Oc2ccc(N(CCCl)CCCl)cc2)cc(Nc2c3ccccc3nc3ccccc23)c1, which melting point is on record?
A: The melting point was 131 to 133 °C.

Q: For COc1ccccc1N1CCN(C(=O)NCCN(C)C)CC1, which melting point is on record?
A: The melting point was 98 to 100 °C.

Q: Which melting point does the source give for CC(C)(C)OC(=O)Cc1ccc(O)cc1 here?
A: Its melting point is 95 to 96 °C.

Q: Which melting point does the source give for O=c1[nH]c2cc(Cl)cc(Cl)c2c(O)c1Sc1ccccc1Cl here?
A: Its melting point is 285 to 288 °C.

Q: With N#Cc1nc2c(nc1N)CCCC2 as the molecule, how does the melting point read?
A: The melting point was 200 to 202 °C.
